Laboratory results from US9914722B2, “Compounds for treating spinal muscular atrophy” (PTC Therapeutics Inc., priority 2012, dated 2018).

Experiments:
[1] = tested on: Smn protein; experiment: Smn protein assay (Smn HTRF) in cultured cells; assay type: cell-based, human; settings: for maximal fold induction / EC (1.5-fold): Homo sapiens, Fibroblast, GM03813 SMA Type 1 patient fibroblasts, 48 hours, HTRF; for maximal fold induction: 7-point concentration data, relative to vehicle, read-out: maximum fold (Fold) increase of Smn protein; for EC (1.5-fold): concentration producing 1.5 times Smn protein vs DMSO vehicle, read-out: EC1.5x for Smn protein expression; for Smn protein expression: SMA Type 1 patient fibroblast cells, 48 hour, SMN HTRF assay, FIG. 6
Summary of the method: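 SMA patient fibroblasts (5,000/well) were exposed to a 7-point, 3.16-fold compound dilution series for 48 hours at 37° C, in triplicate. Lysates were read by HTRF with anti-SMN d2/kryptate at 665/620 nm. Blank-corrected signal was expressed as fold over DMSO vehicle, giving the EC1.5x and the maximum fold increase.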

[2] = tested on: SMN2 full length and Δ7 mRNA; experiment: Endogenous SMN2 mRNA end-point semi-quantitative RT-PCR splicing assay in cultured cells; assay type: cell-based, human; settings: 24 hr, FIG. 5; for SMN2 FL mRNA (gel band) / SMN2 Δ7 mRNA (gel band): GM03813 Type 1 SMA patient fibroblasts, increasing concentrations; for SMN2 alternative splicing: Type 1 SMA patient fibroblasts, rising concentrations
Procedure: Endogenous SMN2 mRNA End-Point Semi-Quantitative RT-PCR Splicing Assay in Cultured Cells
The endpoint reverse transcription-PCR splicing assay is used to visualize and quantify the levels of the SMN2 full length and Δ7 mRNA in primary cells and cell lines containing the SMN2 gene treated with a test compound.
Protocol. GM03813 SMA patient cells (5,000 cells/well) are seeded in 200 μL of cell culture medium (DMEM plus 10% FBS) in 96-well flat-bottom plates and the plate is immediately swirled to ensure proper dispersal of cells, forming an even monolayer of cells. Cells are allowed to attach for at least 4-6 hrs. Test compounds are serially diluted 3.16-fold in 100% DMSO to generate a 7-point concentration curve. A solution of test compound (1 μL, 200× in DMSO) is added to each test well and 1 μL DMSO is added to each control well. The plate is incu bated for 24 hrs in a cell culture incubator (37° C., 5% CO2, 100% relative humidity). The cells are then lysed in Cells-To-Ct lysis buffer and the lysate is stored at −80° C.
SMN FL and Δ7 mRNA are identified using the following primers in Table 6. These primers hybridize to a nucleotide sequence in exon 6 (SMN Forward C, SEQ ID NO. 11) (nucleotide 43 to nucleotide 63) and exon 8 (SMN Reverse C, SEQ ID NO. 12) (nucleotide 51 to nucleotide 73) common to human SMN1 and SMN2 mRNA. Since the SMA patient cells used in Example 4 contain only the SMN2 gene, RT-PCR can visualize and quantify only SMN2 full-length and SMN2 Δ7 mRNA.
To synthesize cDNA, 5 μL of lysate, 4 μL of 5× iScript reaction mix, 1 μL of reverse transcriptase, and 10 μL of water are combined and incubated 5 min at 25° C. followed by 30 min at 42° C., followed by 5 min at 85° C. The cDNA solution is stored at −20° C.
To perform endpoint PCR, 5 μL of cDNA, 0.2 μL of 100 μM forward primer, 0.2 μL of 100 μM reverse primer, and 22.5 μL of polymerase super mix are combined in a 96 well semiskirted PCR plate. PCR is carried out at the following temperatures for the indicated time: Step 1: 94° C. (2 min), Step 2: 94° C. (30 sec), Step 3: 55° C. (30 sec), Step 4: 68° C. (1 min), then repeat Steps 2 to 4 for a total of 33 cycles, then hold at 4° C.
10 μL of each PCR sample is electrophoretically separated on a 2% agarose E-gel for 14 minutes stained with double-stranded DNA (dsDNA) staining reagents (e.g., ethidium bromide) and visualized using a gel imager.

Compound | maximal fold induction [1] | EC (1.5-fold) [1] [µM] | Smn protein expression [1] | SMN2 FL mRNA (gel band) [2] | SMN2 Δ7 mRNA (gel band) [2] | SMN2 alternative splicing [2]
C[C@@H]1CN(c2ccc3oc(-c4cn5ccccc5n4)cc(=O)c3c2)C[C@H](C)N1 [Cpd 17, 6-[(3R,5S)-3,5-dimethylpiperazin-1-yl]-2-(imidazo[1,2-a]pyridin-2-yl)-4H-chromen-4-one] | > 1.65 | 1 to 3 | dose dependent increase in Smn protein expression | progressively more SMN2 FL mRNA | less SMN2 Δ7 mRNA | correction of SMN2 alternative splicing
COc1ccc(-c2cc(=O)c3cc(N4CCN[C@@H](C)C4)ccc3o2)cc1F [Cpd 38, 2-(3-fluoro-4-methoxyphenyl)-6-[(3S)-3-methylpiperazin-1-yl]-4H-chromen-4-one] | 1.5 to 1.65 | 0.3 to 1 | dose dependent increase in Smn protein expression | progressively more SMN2 FL mRNA | less SMN2 Δ7 mRNA | correction of SMN2 alternative splicing
